{"source": "paper PMC5266543", "about": "(ACS infectious diseases, 2016)", "origin": "cited, not measured here", "tested_on": "M. tuberculosis H37Rv", "settings": "cited from earlier work", "data": [{"smiles": "CC(=O)N(O)CCCP(=O)(O)O", "note": "[Compound 2, FR900098]", "values": [{"measurement": "MIC against Mtb", "result": "essentially inactive"}]}]}
